From ChEMBL document CHEMBL1132682, “High affinity retinoic acid receptor antagonists: analogs of AGN 193109” (Bioorg Med Chem Lett, 1999) come the findings set out here.

Experiment [1] addresses T1, Retinoic acid receptor gamma (Homo sapiens, UniProt P13631).
T1 sequence (P13631 whole entry): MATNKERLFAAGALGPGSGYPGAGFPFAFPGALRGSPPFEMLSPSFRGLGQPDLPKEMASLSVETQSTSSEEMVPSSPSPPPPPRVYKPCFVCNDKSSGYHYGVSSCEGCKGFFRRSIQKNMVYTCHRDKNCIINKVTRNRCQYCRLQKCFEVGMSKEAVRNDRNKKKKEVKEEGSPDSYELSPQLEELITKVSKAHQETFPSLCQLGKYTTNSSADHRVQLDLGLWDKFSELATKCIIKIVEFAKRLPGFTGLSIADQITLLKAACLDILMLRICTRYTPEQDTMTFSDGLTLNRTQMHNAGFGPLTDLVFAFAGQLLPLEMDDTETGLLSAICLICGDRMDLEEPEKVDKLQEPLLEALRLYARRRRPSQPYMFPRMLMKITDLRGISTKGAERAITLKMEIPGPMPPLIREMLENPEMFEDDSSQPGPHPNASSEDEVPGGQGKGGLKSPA
Kind of experiment: Ability to displace 3[H](all-E)-retinoic acid (5 nM) from Retinoic acid receptor gamma using transactivation assay.

The target in experiment [2] is T2, Retinoic acid receptor alpha (Homo sapiens, UniProt P10276).
T2 sequence (P10276 whole entry): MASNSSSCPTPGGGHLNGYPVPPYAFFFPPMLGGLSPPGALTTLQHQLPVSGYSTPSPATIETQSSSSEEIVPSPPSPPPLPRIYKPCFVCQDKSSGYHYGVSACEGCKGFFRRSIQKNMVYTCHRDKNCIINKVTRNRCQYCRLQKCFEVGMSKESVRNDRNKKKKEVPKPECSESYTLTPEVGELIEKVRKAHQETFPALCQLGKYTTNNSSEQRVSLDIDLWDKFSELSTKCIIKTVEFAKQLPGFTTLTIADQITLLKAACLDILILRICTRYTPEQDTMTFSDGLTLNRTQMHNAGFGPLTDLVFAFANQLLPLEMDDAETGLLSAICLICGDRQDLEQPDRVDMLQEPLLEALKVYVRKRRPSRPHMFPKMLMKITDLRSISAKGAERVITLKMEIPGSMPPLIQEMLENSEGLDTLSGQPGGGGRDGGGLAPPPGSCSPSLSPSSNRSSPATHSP
The experiment in a line: Ability to displace 3[H](all-E)-retinoic acid (5 nM) from alpha retinoic acid receptor (alpha RAR) using transactivation assay.

The target of experiment [3] is T3, Retinoic acid receptor beta (Homo sapiens, UniProt P10826).
T3 sequence (P10826 whole entry): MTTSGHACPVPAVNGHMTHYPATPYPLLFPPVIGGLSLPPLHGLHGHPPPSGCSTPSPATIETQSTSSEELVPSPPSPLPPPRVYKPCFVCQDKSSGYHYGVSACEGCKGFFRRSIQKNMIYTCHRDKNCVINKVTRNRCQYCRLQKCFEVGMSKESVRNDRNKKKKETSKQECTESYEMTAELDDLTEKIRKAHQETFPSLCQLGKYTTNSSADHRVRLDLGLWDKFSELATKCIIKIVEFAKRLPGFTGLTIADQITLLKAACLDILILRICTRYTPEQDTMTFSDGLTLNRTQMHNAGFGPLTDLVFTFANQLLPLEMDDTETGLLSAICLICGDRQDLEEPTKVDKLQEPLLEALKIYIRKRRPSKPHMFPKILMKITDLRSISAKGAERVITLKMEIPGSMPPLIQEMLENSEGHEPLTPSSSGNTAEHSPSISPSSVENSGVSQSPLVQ
The experiment in a line: Ability to displace 3[H](all-E)-retinoic acid (5 nM) from beta retinoic acid receptor (beta RAR) using transactivation assay.

A word on the Kd: it is the equilibrium constant for the complex coming apart. Low values mean tighter binding, high ones weaker binding. For `CC1(C)CC=C(c2cccc(O)c2)c2cc(C#Cc3ccc(C(=O)O)cc3)ccc21`, the values for the dissociation constant Kd in experiment [1], in experiment [2] and in experiment [3] were 0.254 µM, 0.919 µM and 0.162 µM, respectively.

For the molecule `CC1(C)CC=C(c2ccccc2)c2cc(C#Cc3ccc(C(=O)O)cc3)ccc21`, the Kd amounted to 0.042 µM in experiment [1], 0.147 µM in experiment [2] and 0.033 µM in experiment [3].

For `CC1(C)CC=C(c2ccc(O)cc2)c2cc(C#Cc3ccc(C(=O)O)cc3)ccc21`, the equilibrium dissociation constant (Kd) in experiment [1] was 0.098 µM; in experiment [2], 0.229 µM; in experiment [3], 0.072 µM.

Take `Cc1cc(C)cc(C2=CCC(C)(C)c3ccc(C#Cc4ccc(C(=O)O)cc4)cc32)c1`: the Kd in experiment [1] stood at 0.408 µM; in experiment [2], 1.05 µM; in experiment [3], 0.274 µM.

Consider `CC1(C)CC=C(c2ccc(C(F)(F)F)cc2)c2cc(C#Cc3ccc(C(=O)O)cc3)ccc21`, for which the Kd turned out to be 0.057 µM in experiment [1], 0.044 µM in experiment [2] and 0.029 µM in experiment [3].

For `COc1ccc(C2=CCC(C)(C)c3ccc(C#Cc4ccc(C(=O)O)cc4)cc32)cc1`, the figures for the dissociation constant (Kd) in experiment [1], in experiment [2] and in experiment [3] were 0.036 µM, 0.06 µM and 0.016 µM, respectively.

`Cc1cccc(C2=CCC(C)(C)c3ccc(C#Cc4ccc(C(=O)O)cc4)cc32)c1`: the Kd in experiment [1] came out at 0.067 µM; in experiment [2], 0.276 µM; in experiment [3], 0.051 µM.

On to `CC1(C)CC=C(c2ccc(F)cc2)c2cc(C#Cc3ccc(C(=O)O)cc3)ccc21`, for which the Kd came out at 0.082 µM in experiment [1], 0.085 µM in experiment [2] and 0.052 µM in experiment [3].

In the case of `CC(C)(C)c1ccc(C2=CCC(C)(C)c3ccc(C#Cc4ccc(C(=O)O)cc4)cc32)cc1`, the Kd in experiment [1] is 0.094 µM; in experiment [2] it was 0.178 µM; in experiment [3], 0.021 µM.

As to `CC1(C)CC=C(c2ccc(Cl)cc2)c2cc(C#Cc3ccc(C(=O)O)cc3)ccc21`, the figures for the Kd in experiment [1], in experiment [2] and in experiment [3] were 0.027 µM, 0.058 µM and 0.018 µM, respectively.

As to `Cc1ccccc1C1=CCC(C)(C)c2ccc(C#Cc3ccc(C(=O)O)cc3)cc21`, the Kd was 0.035 µM in experiment [1], 0.103 µM in experiment [2] and 0.029 µM in experiment [3].

Turning to `Cc1ccc(C2=CCC(C)(C)c3ccc(C#Cc4ccc(C(=O)O)cc4)cc32)cc1`, the Kd in experiment [1] turned out to be 0.007 µM; in experiment [2] it was 0.016 µM; in experiment [3], 0.007 µM.

For the molecule `CC1(C)CC=C(c2ccc(C#N)cc2)c2cc(C#Cc3ccc(C(=O)O)cc3)ccc21`, the Kd in experiment [1] worked out at 0.051 µM; in experiment [2] it was 0.038 µM; in experiment [3] it was 0.014 µM.

As to `CC(C)c1ccc(C2=CCC(C)(C)c3ccc(C#Cc4ccc(C(=O)O)cc4)cc32)cc1`, the values for the Kd in experiment [1], in experiment [2] and in experiment [3] were 0.171 µM, 0.09 µM and 0.011 µM, respectively.

Turning to `CCc1ccc(C2=CCC(C)(C)c3ccc(C#Cc4ccc(C(=O)O)cc4)cc32)cc1`, the values for the Kd in experiment [1], in experiment [2] and in experiment [3] were 0.019 µM, 0.04 µM and 0.01 µM, respectively.
